Data: patent US11634442B2, “Methods for the purification of L-glufosinate” (BASF SE, priority 2017, dated 2023)

Test: Solid form stability on storage over desiccant (XRPD, ion chromatography)
Description: X-ray Power Diffraction (XRPD), Reflection Mode: XRPD patterns were collected with a PANalytical X'Pert PRO MPD diffractometer using an incident beam of Cu Kα radiation produced using a long, fine-focus source and a nickel filter. The diffractometer was configured using the symmetric Bragg-Brentano geometry. […] A specimen of the sample was prepared as a thin, circular layer centered on a silicon zero-background substrate. Antiscatter slits (SS) were used to minimize the background generated by air. Soller slits for the incident and diffracted beams were used to minimize broadening from axial divergence. Diffraction patterns were collected using a scanning position-sensitive detector (X'Celerator) located 240 mm from the sample and Data Collector software v. 2.2b.
XRPD, Transmission Mode: XRPD patterns were collected with a PANalytical X'Pert PRO MPD diffractometer using an incident beam of Cu radiation produced using an Optix long, fine-focus source. An elliptically graded multilayer mirror was used to focus Cu Kα X-rays through the specimen and onto the detector. […] A specimen of the sample was sandwiched between 3-μm-thick films and analyzed in transmission geometry. A beam-stop, short antiscatter extension, antiscatter knife edge were used to minimize the background generated by air. Soller slits for the incident and diffracted beams were used to minimize broadening from axial divergence. Diffraction patterns were collected using a scanning position-sensitive detector (X'Celerator) located 240 mm from the specimen and Data Collector software v. 2.2b.
Form B was characterized by ^1H NMR, IC, DSC, and TGA.

## CP(=O)(O)CC[C@H](N)C(=O)O.N [Form A]
Form A from 93/7 v/v methanol/water slurry, storage time not given
  form change by XRPD upon storage over desiccant: converted to Form B with minor additional peaks
Prone to conversion to Form B
  overall assessment of form stability: metastable

## CP(=O)(O)CC[C@H](N)C(=O)O [Form B]
47 days over desiccant
  change in XRPD pattern upon storage over desiccant for 47 days: No significant changes

## CP(=O)(O)CC[C@H](N)C(=O)O.N [Form C]
Sample of Form C with minor Form A, 6.3 wt % initially
  ammonium content by IC after storage under desiccant for 36 days: 3.2 wt %
Sample of Form C with minor Form A, 36 days under desiccant
  form change by XRPD after storage under desiccant for 36 days: conversion to Form B with minor Form A and a few minor additional peaks

## CP(=O)(O)CC[C@H](N)C(=O)O [Form D]
Sample of Form D+minor Form A, storage time not given
  change in XRPD pattern upon storage over desiccant: No significant changes
